Assay results published in the supplement of paper PMC10307832.

How the values were obtained:
Assay in all cases: relative viability (nuclei count vs DMSO), 5 days (fraction); higher = more cells survive
[1] = compound: C[C@@H](N)c1ccc(C(=O)Nc2ccnc3[nH]ccc23)cc1 + CC(=O)c1c(C)c2cnc(Nc3ccc(N4CCNCC4)cn3)nc2n(C2CCCC2)c1=O [Palbociclib] (partner 0.5 µM)
Outline: (§1)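 Cells from lung cancer lines were seeded into 1536-well plates and, one day later, dosed by pin tool. Treatments were either a single drug or a fixed dose of an anchor drug with five library-drug doses (not always all listed) in √10 steps. After 5 days, nuclei were stained in a one-step fixation (final 0.05% Triton X-100, 1% formaldehyde, 1 ug/ml Hoechst) and counted on 4× images, and relative viability is the treated-to-vehicle nuclei ratio, as the median of duplicate plates.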

Tanzisertib + Decitabine = compound: O[C@H]1CC[C@H](Nc2ncc3nc(Nc4c(F)cc(F)cc4F)n([C@H]4CCOC4)c3n2)CC1 [Tanzisertib] + Nc1ncn([C@H]2C[C@H](O)[C@@H](CO)O2)c(=O)n1 [Decitabine] (partner 2 µM)
Outline: as §1

[2] = compound: C1CNCCC1C2=CC(=NN2)C3=CC=NC=C3 + O=C(c1cc(Cc2n[nH]c(=O)c3ccccc23)ccc1F)N1CCN(C(=O)C2CC2)CC1 [Olaparib] (partner 8 µM)
Outline: as §1

[3] = compound: C[C@@H](N)c1ccc(C(=O)Nc2ccnc3[nH]ccc23)cc1 + COc1cc2c(Oc3ccc(NC(=O)C4(C(=O)Nc5ccc(F)cc5)CC4)cc3F)ccnc2cc1OCCCN1CCOCC1 [Foretinib] (partner 0.25 µM)
Outline: as §1

Cell Line | relative viability ([1]; first compound 0.04 µM) | relative viability ([1]; first compound 0.1265 µM) | relative viability ([1]; first compound 0.4 µM) | relative viability ([1]; first compound 1.265 µM) | relative viability ([1]; first compound 4 µM) | relative viability (Tanzisertib + Decitabine; first compound 0.08 µM) | relative viability (Tanzisertib + Decitabine; first compound 0.253 µM) | relative viability (Tanzisertib + Decitabine; first compound 0.8 µM) | relative viability (Tanzisertib + Decitabine; first compound 2.53 µM) | relative viability (Tanzisertib + Decitabine; first compound 8 µM) | relative viability ([2]; first compound 0.08 µM) | relative viability ([2]; first compound 0.8 µM) | relative viability ([2]; first compound 2.53 µM) | relative viability ([2]; first compound 8 µM) | relative viability ([3]; first compound 0.04 µM) | relative viability ([3]; first compound 0.1265 µM) | relative viability ([3]; first compound 0.4 µM) | relative viability ([3]; first compound 1.265 µM) | relative viability ([3]; first compound 4 µM)
NCI-H1666 | 0.661 | 0.63 | 0.636 | 0.616 | 0.668 | 0.766 | 0.714 | 0.658 | 0.704 | 0.679 | 0.704 | 0.768 | 0.806 | 0.745 | 0.859 | 1.01 | 1.14 | 1.25 | 1.08
NCI-H1734 | 0.316 | 0.355 | 0.325 | 0.338 | 0.277 | 0.492 | 0.492 | 0.399 | 0.52 | 0.441 | 0.581 | 0.639 | 0.598 | 0.635 | 0.996 | 0.95 | 0.867 | 0.855 | 0.683
NCI-H1755 | 0.432 | 0.436 | 0.437 | 0.407 | 0.367 | 0.737 | 0.701 | 0.705 | 0.754 | 0.726 | 0.974 | 0.922 | 0.857 | 0.852 | 0.95 | 0.96 | 0.901 | 0.903 | 0.664
NCI-H1793 | 0.348 | 0.295 | 0.355 |  | 0.385 | 0.533 | 0.48 | 0.509 | 0.51 | 0.453 | 0.748 |  | 0.902 | 0.953 | 0.692 | 0.829 | 0.946 |  | 0.83
NCI-H1915 |  | 0.504 | 0.52 |  | 0.431 | 0.288 | 0.275 | 0.264 | 0.257 | 0.279 | 0.265 | 0.272 | 0.269 | 0.25 | 1.17 | 1.11 | 1.12 |  | 0.984
NCI-H1944 | 0.37 | 0.334 | 0.351 | 0.387 | 0.266 | 0.453 | 0.416 | 0.43 | 0.397 | 0.459 | 0.403 | 0.384 | 0.389 | 0.384 | 0.98 | 0.975 | 0.985 | 0.822 | 0.557
NCI-H1975 | 0.808 | 0.673 | 0.607 | 0.2 | 0.321 | 0.406 | 0.41 | 0.295 | 0.373 | 0.39 | 0.87 | 0.894 | 0.936 | 0.778 | 1.06 | 0.854 | 0.847 | 0.681 | 0.653
NCI-H1993 | 0.688 | 0.74 |  | 0.595 | 0.607 | 0.723 | 0.732 | 0.589 | 0.438 | 0.539 | 0.937 | 0.918 | 1.02 | 1.21 | 0.785 | 0.732 | 0.781 | 0.924 | 0.714
NCI-H2009 | 0.194 | 0.2 | 0.213 | 0.153 | 0.154 | 0.366 | 0.437 | 0.387 | 0.355 | 0.377 | 0.683 | 0.749 | 0.648 | 0.728 | 1.2 | 1.14 | 1.11 | 1.02 | 0.868
NCI-H2023 | 0.371 | 0.409 | 0.424 |  | 0.35 | 0.249 | 0.21 | 0.217 | 0.165 | 0.166 | 0.354 | 0.494 | 0.488 | 0.538 | 0.965 | 1.14 | 1.4 | 0.988 | 0.766
NCI-H2085 | 0.454 | 0.452 | 0.402 | 0.373 | 0.406 |  | 0.603 | 0.583 | 0.54 | 0.549 | 0.903 |  | 0.807 | 0.746 | 1.03 | 0.989 | 0.918 | 0.901 | 0.79
NCI-H2087 | 0.24 | 0.263 | 0.299 | 0.254 | 0.28 | 0.35 | 0.268 | 0.276 | 0.244 | 0.33 | 0.522 | 0.545 | 0.528 | 0.633 | 1.16 | 1.07 | 1.1 |  | 0.983
NCI-H2126 | 0.34 | 0.351 | 0.364 | 0.378 | 0.389 | 0.558 | 0.586 | 0.574 | 0.592 | 0.658 | 0.933 | 0.875 | 0.923 | 0.939 | 1.2 | 1.13 | 1.29 |  | 1.09
NCI-H2170 | 0.423 | 0.412 | 0.423 | 0.417 | 0.395 | 0.483 | 0.479 | 0.465 | 0.485 | 0.435 | 0.606 | 0.632 | 0.626 | 0.609 | 1.02 | 1 | 0.936 | 0.922 | 0.937
